{"source": "patent US20260297042A1", "about": "“BIARYLAMIDE DERIVATIVES AND THEIR USE AS PKMYT1 INHIBITORS” (CANCER RESEARCH TECHNOLOGY LIMITED, priority 2023, published 2026)", "target": "T1, Human PKMYT1 (Homo sapiens, UniProt Q99640)", "T1 construct": "Human PKMYT1 75-362 was cloned as a TEV cleavable 6xHis fusion; 6xHis (TEV cleavable) (cleaved yes); made in house; host or cells: bacterial cells", "T1 sequence (Q99640 75-362)": "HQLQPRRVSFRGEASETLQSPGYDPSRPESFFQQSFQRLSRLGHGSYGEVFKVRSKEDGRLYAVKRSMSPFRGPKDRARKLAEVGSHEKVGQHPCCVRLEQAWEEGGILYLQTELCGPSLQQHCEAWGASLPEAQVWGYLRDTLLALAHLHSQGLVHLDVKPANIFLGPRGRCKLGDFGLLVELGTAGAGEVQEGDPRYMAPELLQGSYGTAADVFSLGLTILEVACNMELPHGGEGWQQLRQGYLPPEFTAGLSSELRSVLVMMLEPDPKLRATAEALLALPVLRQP", "assay": "PKMYT1 biochemical ADP-Glo enzymatic assay", "settings": "ADP-Glo; 15 nM PKMYT1 kinase domain, 500 µM ATP, 60 minutes at 26° C.; banded", "how_it_was_run": "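IC50 values come from 10-point 3-fold series, with replicates required within 3-fold and r2 >0.9. ADP formed by PKMYT1 intrinsic ATPase (500 uM ATP, 60 min, 26° C.) was quantified by ADP-Glo luminescence. The enzyme was the TEV-cleaved kinase domain 75-362 at 15 nM, in HEPES pH 7.5 buffer.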", "data": [{"smiles": "CCN(CC)C(=O)Cn1cc(C)c(Nc2ncc(C(=O)Nc3c(C)ccc(O)c3C)s2)n1", "note": "[BAA-207, 2-[[1-[2-(diethylamino)-2-oxo-ethyl]-4-methyl-pyrazol-3-yl]amino]-N-(3-hydroxy-2,6-dimethyl-phenyl)thiazole-5-carboxamide]", "values": [{"measurement": "IC50", "value": "< 50", "unit": "nM"}]}]}
